Reference: patent US10350257B2, “Pharmaceutical composition containing complex extract of Crataegi fructus and Citri pericarpium as an active ingredient for treating or preventing obesity or lipid-related metabolic diseases” (NEUMED, priority 2012, dated 2019)
Marks after values point to notes of the source that are not given here.

Tests used:
[1] = test system: diet-induced obesity (DIO) white rat models; test: Blood triglyceride and total cholesterol in serum of high-fat diet obese animal models after 8 weeks; type: in vivo, Sprague-Dawley male white rats; settings: serum after 8 weeks; high-fat diet rats; extracts 100 mg/kg, HCA 390 mg/kg oral twice a day
Protocol: (§1) Animal experiments were performed on Sprague-Dawley ([…] BIO Korea) male white rats weighing 80 to 100 g. 3. Selection of Experimental Groups • Normal group (AIN-93G, Normal diet+fed with secondary distilled water); • Control group (60% Kcal high-fat diet+fed with secondary distilled water); • Positive control group (60% Kcal high-fat diet+administered with 390 mg/kg of […] Fructus extract-administered group (high-fat diet+administered with 100 mg/kg of […] Fructus extract of Comparative Example 1); • Citri Pericarpium extract-administered group (high-fat diet+administered with 100 mg/kg of the Citri Pericarpium extract of Comparative Example 2); and • Complex extract-administered group (high-fat diet+administered with 100 mg/kg of the complex extract of Example 1 or 2). The temperature was 22±2° C., the relative humidity was 50±10%, and the dark-light cycle (light on at 07:00 light off at 19:00) was controlled with fluorescent lighting. […] Moreover, all the experimental groups were sacrificed after 8 weeks to collect blood samples, serums were separated from the blood samples, and the blood triglyceride (mg/dL) and the total cholesterol (mg/dL) were analyzed using a biochemical analyzer ([…], USA).

[2] = test system: diet-induced obesity (DIO) white rat models; test: Body weight gain in high-fat diet obese animal models (8 weeks); type: in vivo, Sprague-Dawley male white rats; settings: oral twice a day for 8 weeks, extracts 100 mg/kg, HCA 390 mg/kg
Protocol: as §1

[3] = 1,500 mg HCA daily, 12-week clinical trial; cited from earlier work
[4] = about 3 g daily, after 3 months, clinical trials; cited from earlier work

Compound	Total cholesterol [1] [mg/dL]	Total triglyceride [1] [mg/dL]	Body weight gain ([2]; 60% Kcal high-fat diet rats, mean±SD) [g]	Reduction in rate of body weight gain ([2]; vs high-fat diet control group)	Weight loss effect compared to the placebo group [3]	Average body weight lost [4] [kg]	Body fat reduced [4] [%]
O=C(O)CC(O)(C(=O)O)C(O)C(=O)O (stereo not shown) [HCA, hydroxycitrate]	59.8 ± 11.2	134.2 ± 21.3	333.2 ± 12.2	7.3* %	no weight loss effect	–	–
conjugated linoleic acid	–	–	–	–	–	2.5	15 to 20
